Data reported in US20250145715A1, “B7-H3 TARGETING FUSION PROTEINS AND METHODS OF USE THEREOF” (GT Biopharma, Inc., priority 2021, published 2025).
“Also recorded” adds a separate entry of the source.

Columns and labels:
[1] = test system: myeloma cells (RPMI-8226, U266, MM1S, H929); assay: IncuCyte Zoom NK cell killing of myeloma cells; format: cell-based, human
Description: (§1) FIGS. 7A-7B illustrate the ability of peripheral blood NK cells with or without B7-H3-TriKE to kill myeloma cells in live imaging IncuCyte Zoom assays. FIG. 7A is a graph showing the effects with effector:target (E:T) ratios of 2:1 and 4:1 on MM1S cells. FIG. 7B is a graph showing the effects with effector:target (E:T) ratios of 2:1 and 4:1 on U266 cells.
as §1, with “8A-8D” for “7A-7B”, “8A is a graph showing the effects with effector:target (E:T) ratios of 2:1 and 4:1 on H929 cells. FIG. 8B” for “7A”, “8C is a graph showing the effects with effector:target (E:T) ratios of 2:1 and 4:1 on RPMI-8226 cells. FIG. 8D” for “7B”
The ability of peripheral blood NK cells with or without B7-H3-TriKE to kill myeloma cells was compared in live imaging IncuCyte Zoom assays with escalating doses of TriKE. Maximal killing occurred with 3 nM concentration.

[2] = test system: PC3 prostate cancer cells; assay: NK cell CD107a / IFNγ flow cytometry against PC3; format: cell-based, human; conditions: normal donor and prostate cancer patient NK cells, vs controls
Description: FIG. 15A is a graph showing pooled analysis of proportion of NK cells from healthy donors or prostate cancer patients expressing CD107a+ (top) or IFNγ (bottom) against C4-2 targets (N=9 for healthy donors, N=3 for patients). FIG. 15B is a graph showing pooled analysis of proportion of NK cells from healthy donors or prostate cancer patients expressing CD107a+ (top) or IFNγ (bottom) against DU145 targets (N=9 for healthy donors, N=3 for patients). FIG. 15C is a graph showing pooled analysis of proportion of NK cells from healthy donors or prostate cancer patients expressing CD107a+ (top) or IFNγ (bottom) against LNCaP targets (N=9 for healthy donors, N=3 for patients). FIG. 15D is a graph showing pooled analysis of proportion of NK cells from healthy donors or prostate cancer patients expressing CD107a+ (top) or IFNγ (bottom) against PC3 targets (N=9 for healthy donors, N=3 for patients). * p<0.05, ** p<0.01, *** p<0.001, and **** p<0.0001.
ADCC was measured in a flow cytometry assay by evaluating degranulation via CD107a (lysosomal-associated membrane protein LAMP-1) and intracellular IFNγ production. Upon thawing, normal donor and patient-derived PBMCs or ascites cells were rested overnight (37° C., 5% CO2) in RPMI 1640 media supplemented with 10% fetal calf serum (RPMI-10). […] Samples were washed and evaluated in an LSRII flow cytometer (BD Biosciences, San Jose, CA, USA). […]

[3] = Toxicity assessment, weights of NSG mice engrafted with NK cells; format: in vivo; conditions: irradiated NSG mice, 1 million NK cells, treated three weeks, weights tracked 90 days
Method: As illustrated in FIGS. 32A-32F, cam1615B7-H3 TriKE mediates anti-tumor activity in vivo. Determination of in vivo activity is a critical step for translation. However, prior to evaluating the ability of the cam1615B7-H3 TriKE to induce function against tumor the potential for toxicity was assessed. To do this NSG mice were irradiated, engrafted with 1 million NK cells, treated with nothing, IL-15, or cam1615B7-H3 for three weeks, and weights were tracked over the course of 90 days post initial treatment. […] This is not surprising given the low toxicity profile of IL-15 and the safety profile of B7-H3. […] In this model, human NK cells and human high grade serous MA-148-luc cells are injected into the peritoneal cavity of NSG mice.

B7-H3 TriKE: camelid nanobodies targeting CD16 and B7-H3 joined by IL-15 and two linkers; sequence table equates the name with cam1615B7-H3
NK cell mediated killing of myeloma lines ([1]; 3 nM B7-H3-TriKE, all four myeloma lines): statistically significant increase; also recorded: significantly enhanced NK cell mediated killing of myeloma cells
TriKE concentration giving maximal killing ([1]; escalating doses of TriKE, peripheral blood NK cells): 3 nM

cam1615B7-H3: second-generation TriKE: humanized camelid anti-CD16 VHH, human wild-type IL-15, anti-B7-H3 mAb 376.96 scFv; SEQ ID NO:1
NK cell IFNγ production against PC3 [2]: enhanced
NK cell degranulation (CD107a) against PC3 [2]: enhanced
body weight vs controls [3]: no significant differences
